Data reported in patent publication US5691373A, “Nonpeptide endothelin antagonists I” (Warner-Lambert Company, priority 1995, dated 1997).
Like-named read-outs stand apart in the source and are kept apart here.

Legend:
ETB = target: T1, ETB (Rattus norvegicus, UniProt P21451); conditions: for inhibition at 10 µM: read-out: ERBA-B % inhibition
T1 sequence (P21451 27-442): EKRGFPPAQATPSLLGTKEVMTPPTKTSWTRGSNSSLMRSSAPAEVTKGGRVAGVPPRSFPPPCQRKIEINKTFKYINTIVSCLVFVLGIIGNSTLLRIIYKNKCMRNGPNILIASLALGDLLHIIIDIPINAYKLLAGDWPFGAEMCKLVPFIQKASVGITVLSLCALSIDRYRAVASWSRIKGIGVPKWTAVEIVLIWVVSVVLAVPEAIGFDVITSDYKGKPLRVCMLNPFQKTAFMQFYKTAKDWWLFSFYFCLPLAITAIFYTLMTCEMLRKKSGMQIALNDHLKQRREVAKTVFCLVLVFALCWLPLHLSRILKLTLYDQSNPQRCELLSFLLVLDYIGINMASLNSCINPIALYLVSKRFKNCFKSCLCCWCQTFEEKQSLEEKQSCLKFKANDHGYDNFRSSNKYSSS
Protocol: The tissue is made up of 20 mM tris(hydroxymethyl)aminomethane hydrochloride (Trizma) buffer, 2 mM ethylenediaminetetra acetate, 100 μM phenylmethylsulfonyl fluoride.
First, thaw one aliquot of frozen rat cerebellar membranes (2 mg protein in 0.5 mL). Next, add 0.5 mL membrane aliquot to 4.5 mL cold tissue buffer, polytron at 7,500 revolutions per minute for 10 seconds. Finally, dilute tissue suspension 1/100 (0.1 mL suspension+9.9 mL tissue buffer), polytron again, and place ice.
Mix in 150 μL of tissue to each tube, vortex briefly, then tap to force all liquids to bottom (total assay volume=250 μL). Then place the tubes in a 37° C. water bath for 2 hours.
Add 2.5 mL cold wash buffer (50 mM Trizma buffer) to each tube, filter, and then wash tube with additional 2.5 mL wash buffer and add to filter. Finally, wash filters with an additional 2.5 mL of cold wash buffer.
Count filters for radioactivity in gamma counter.

ETA = target: T2, ETA (Oryctolagus cuniculus, UniProt A5A8K3); conditions: for inhibition at 10 µM: read-out: ERBA-A % inhibition
T2 sequence (A5A8K3 21-427): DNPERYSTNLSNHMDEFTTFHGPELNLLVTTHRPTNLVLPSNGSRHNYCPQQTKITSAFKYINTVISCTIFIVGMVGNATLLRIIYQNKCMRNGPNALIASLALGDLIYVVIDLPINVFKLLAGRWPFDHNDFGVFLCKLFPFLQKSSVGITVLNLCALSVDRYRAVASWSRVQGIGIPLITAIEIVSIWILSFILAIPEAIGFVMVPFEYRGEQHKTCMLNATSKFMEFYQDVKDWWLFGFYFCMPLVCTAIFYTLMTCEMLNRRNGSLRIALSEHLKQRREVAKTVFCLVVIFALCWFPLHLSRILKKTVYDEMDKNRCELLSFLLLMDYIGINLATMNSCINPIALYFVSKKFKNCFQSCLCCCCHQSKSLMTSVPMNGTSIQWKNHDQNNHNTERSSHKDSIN
Protocol: The cells used were rabbit renal artery vascular smooth muscle cells grown in a 48-well dish (1 cm^2) (confluent cells).
The growth media was Dulbecco's Modified Eagles/Ham's F12 which contained 10% fetal bovine serum and antibiotics (penicillin/streptomycin/fungizone).
Second, remove the assay buffers, place the dish on ice, and add 150 μL of cold assay buffer described above to each well. […] Next, place dish in a 37° C., water bath for about 2 hours and gently agitate the dish every 15 minutes. Discard the radioactive incubation mixture in the sink and wash wells 3 times with 1 mL of cold phosphate buffered saline.

[1] = read-out: ERBA-B IC50, [125I]-ET-1, rat cerebellar membranes
[2] = read-out: ERBA-A IC50, [125I]-ET-1, rabbit renal artery vascular smooth muscle cells
[3] = ERBA-A IC50, [125I]-ET-1, rabbit renal artery vascular smooth muscle cells

| Compound | IC50 (ETB) [µM] | IC50 (ETA; [3]) [µM] | also measured |
| --- | --- | --- | --- |
| CC(C)c1ccc(C2=C(Cc3ccccc3)C(O)(c3ccc(Cl)cc3)OC2=O)cc1 (racemic) [Example 4, 2(5H)-Furanone, 5-(4-chlorophenyl)-5-hydroxy-3-[4-(1-methylethyl)phenyl]-4-(phenylmethyl)- , (±)-] |  |  | inhibition at 10 µM (ETB): 52%; inhibition at 10 µM (ETA): 34% |
| CC(C)c1ccc(C2=C(Cc3ccc4ccccc4c3)C(O)(c3ccc(Cl)cc3)OC2=O)cc1 (racemic) [Example 41, 2(5H)-Furanone, 5-(4-chlorophenyl)-5-hydroxy-3-[4-(1-methylethyl)phenyl]-4-(2-naphthalenylmethyl)-, (±)-] | 9 |  | inhibition at 10 µM (ETA): 37% |
| CC(C)c1ccc(C2=C(Cc3ccc4c(c3)OCO4)C(O)(c3ccc(Cl)cc3)OC2=O)cc1 (racemic) [Example 42, 2(5H)-Furanone, 4-(1,3-benzodioxol-5-ylmethyl)-5-(4-chlorophenyl)-5-hydroxy-3-[4-(1-methylethyl)phenyl]-, (±)-] |  |  | inhibition at 10 µM (ETB): 54%; inhibition at 10 µM (ETA): 36% |
| O=C1OC(O)(c2ccc(Cl)cc2)C(Cc2ccc3ccccc3c2)=C1c1ccc2c(c1)OCO2 (racemic) [Example 43, 2(5H)-Furanone, 3-(1,3-benzodioxol-5-yl)-5-(4-chlorophenyl)-5-hydroxy-4-(2-naphthalenylmethyl)-, (±)-] |  |  | IC50 (ETB; [1]): 7 µM; IC50 (ETA; [2]): 2.7 µM |
| O=C1OC(O)(c2ccc(Cl)cc2)C(Cc2cccc3ccccc23)=C1c1ccc2c(c1)OCO2 (racemic) [Example 44, 2(5H)-Furanone) 3-(1,3-benzodioxol-5-yl)-5-(4-chlorophenyl)-5-hydroxy-4-(1-naphthalenylmethyl)-, (±)-] |  | 2.8 | inhibition at 10 µM (ETB): 35% |
| O=C1OC(O)(c2ccc(Cl)cc2)C(Cc2ccccc2)=C1c1ccc(Cl)c(Cl)c1 (racemic) [Example 61, 2(5H)-Furanone, 5-(4-chlorophenyl)-3-(3,4-dichlorophenyl)-5-hydroxy-4-(phenylmethyl)-, (±)-] | 11 | 11 |  |
| Cn1cc(CC2=C(c3ccc4c(c3)OCO4)C(=O)OC2(O)c2ccc(Cl)cc2)c2ccccc21 (racemic) [Example 66, 2 (5H)-Furanone, 3-(1,3-benzodioxol-5-yl)-5-(4-chlorophenyl)-5-hydroxy-4-[(1-methyl-1H-indol-3-yl)methyl], (±)-] | 7.4 | 2.4 |  |
| COc1ccc(C2=C(Cc3ccc(C(C)C)cc3)C(O)(c3ccc(Cl)cc3)OC2=O)cc1OC (racemic) [Example 70, 2(5H)-Furanone, 5-(4-chlorophenyl)-3-(3,4-dimethoxyphenyl)-5-hydroxy-4-[[4-(1-methylethyl)phenyl]methyl]-, (±)-] | 15 | 9.3 |  |
| O=C1OC(O)(c2ccccc2)C(Cc2cccs2)=C1c1ccc2c(c1)OCO2 (centres unmarked) [Example 25, 2(5H)-Furanone, 3-(1,3-benzodioxol-5-yl)-5-hydroxy-5-phenyl-4-(2-thienylmethyl)-] | 15.6 | 1.7 |  |
| O=C1OC(O)(c2ccccc2)C(Cc2ccsc2)=C1c1ccc2c(c1)OCO2 (centres unmarked) [Example 26, 2(5H)-Furanone, 3-(1,3-benzodioxol-5-yl)-5-hydroxy-5-phenyl-4-(3-thienylmethyl)-] | 15.5 | 0.79 |  |
| O=C1OC(O)(c2ccc(Cl)cc2)C(Cc2ccccc2)=C1c1ccc2c(c1)OCCO2 (centres unmarked) [Example 30, 2(5H)-Furanone, 5-(4-chlorophenyl)-3-(2,3-dihydro-1,4-benzodioxin-6-yl)-5-hydroxy-4-(phenylmethyl)-] | 13 | 7.9 |  |
| O=C1OC(O)(c2ccc(Cl)cc2)C(Cc2cccs2)=C1c1ccc2c(c1)OCO2 (centres unmarked) [Example 35, 2(5H)-Furanone, 3-(1,3-benzodioxol-5-yl)-5-(4-chlorophenyl)-5-hydroxy-4-(2-thienylmethyl)-] | 3.3 | 1.1 |  |
| O=C1OC(O)(c2ccc(Cl)cc2)C(Cc2ccsc2)=C1c1ccc2c(c1)OCO2 (centres unmarked) [Example 48, 2(5H)-Furanone, 3-(1,3-benzodioxol-5-yl)-5-(4-chlorophenyl)-5-hydroxy-4-(3-thienylmethyl)-] | 6.2 | 1.2 |  |
| O=C1OC(O)(c2ccc(Cl)cc2)C(Cc2cccc(Cl)c2)=C1c1ccc2c(c1)OCO2 (centres unmarked) [Example 74, 2(5H)-Furanone, 3-(1,3-benzodioxol-5)-5-(4-chlorophenyl)-4-[(3-chlorophenyl)methyl]-5-hydroxy] |  |  | IC50 (ETB; [1]): 12 µM; IC50 (ETA; [2]): 2.5 µM |
| COc1ccc(C2(O)OC(=O)C(c3ccc4c(c3)OCO4)=C2Cc2ccc(Cl)cc2)cc1 (centres unmarked) [Example 81, 3-Benzo[1,3]dioxol-5-yl-4-(4-chlorobenzyl)-5-hydroxy-5-(4-methoxophenyl)-5H -furan-2-one] |  |  | IC50 (ETB; [1]): 0.72 µM |

The next lines start with results.

| IC50 (ETB) [µM] | IC50 (ETA; [3]) [µM] | Compound | also measured |
| --- | --- | --- | --- |
| 9.1 | 1.5 | CC(C)c1ccc(CC2=C(c3ccc4c(c3)OCO4)C(=O)OC2(O)c2ccc(Cl)cc2)cc1 (racemic) [Example 45, 2(5H)-Furanone, 3-(1,3-benzodioxol-5-yl)-5-(4-chlorophenyl)-5-hydroxy-4-[[4-(1-methylethyl)phenyl]methyl]-, (35)-] |  |
| 6.4 | 3.6 | O=C1OC(O)(c2ccc(Cl)cc2)C(Cc2ccc3c(c2)OCO3)=C1c1ccc2c(c1)OCO2 (racemic) [Example 46, 2(5H)-Furanone, 3-(1,3-benzodioxol-5-yl)-4-(1,3-benzodioxol-5-ylmethyl)-5-(4-chlorophenyl)-5-hydroxy-, (±)-] |  |
| 6 | 9.3 | COc1ccc(C2=C(Cc3ccc4c(c3)OCO4)C(O)(c3ccc(Cl)cc3)OC2=O)cc1OC (racemic) [Example 65, 2(5H)-Furanone, 4-(1,3-benzodioxol-5-ylmethy)-5-(4-chlorophenyl)-3-(3,4-dimethoxyphenyl)-5-hydroxy, (±)-] |  |
| 6.3 | 7.1 | COc1ccc(C2=C(Cc3ccccc3)C(O)(c3ccc(Cl)cc3)OC2=O)cc1OC (racemic) [Example 67, 2(5H)-Furanone, 5-(4-chlorophenyl)-3-(3,4-dimethoxyphenyl)-5-hydroxy-4-(phenylmethyl)-, (±)-] |  |
| 9.8 | 1.7 | COc1ccc(CC2=C(c3ccc(OC)c(OC)c3)C(=O)OC2(O)c2ccc(Cl)cc2)cc1OC (racemic) [Example 68, 2(5H)-Furanone, 5-(4-chlorophenyl)-3-(3,4-dimethoxyphenyl)-4-[(3,4-dimethoxyphenyl)methyl]-5-hydroxy-, (±)-] |  |
| 8.4 | 9.1 | O=C1OC(O)(c2ccc(Cl)cc2)C(Cc2ccc3c(c2)OCO3)=C1c1ccc(Cl)c(Cl)c1 (racemic) [Example 69, 2(5H)-Furanone, 4-(1,3-benzodioxol-5-ylmethyl)-5-(4-chlorophenyl)-3-(3,4-dichlorophenyl)-5-hydroxy-, (±)-] |  |
| 13 | 21 | COc1ccc(C2=C(Cc3ccc(Cl)c(Cl)c3)C(O)(c3ccc(Cl)cc3)OC2=O)cc1OC (racemic) [Example 73, 2(5H)-Furanone, 5-(4-chlorophenyl)-4-[(3,4-dichlorophenyl)methyl]-3-(3,4-dimethoxyphenyl)-5-hydroxy-, (±)-] |  |
| 9.1 | 9.9 | O=C1OC(O)(c2ccc(Cl)cc2)C(Cc2ccc(Cl)cc2)=C1c1ccc2c(c1)OCO2 (centres unmarked) [Example 31, 2(5H)-Furanone, 3-(1,3-benzodioxol-5-yl)-5-(4-chlorophenyl)-4-[(4-chlorophenyl)methyl]-5-hydroxy-] |  |
| 6.3 | 1 | COc1ccc(CC2=C(c3ccc4c(c3)OCO4)C(=O)OC2(O)c2ccc(Cl)cc2)cc1 (centres unmarked) [Example 32, 2(5H)-Furanone, 3-(1,3-benzodioxol-5-yl)-5-(4-chlorophenyl)-5-hydroxy-4-[(4-methoxyphenyl)methyl]-] |  |
| 5.7 | 3.5 | Cc1ccc(CC2=C(c3ccc4c(c3)OCO4)C(=O)OC2(O)c2ccc(Cl)cc2)cc1 (centres unmarked) [Example 33, 2(5H)-Furanone, 3-(1,3-benzodioxol-5-yl)-5-(4-chlorophenyl)-5-hydroxy-4-[(4-methylphenyl)methyl]-] |  |
| 7 | 1.3 | Cc1cccc(CC2=C(c3ccc4c(c3)OCO4)C(=O)OC2(O)c2ccc(Cl)cc2)c1 (centres unmarked) [Example 34, 2(5H)-Furanone, 3-(1,3-benzodioxol-5-yl)-5-(4-chlorophenyl)-5-hydroxy-4-[(3-methylphenyl)methyl]-] |  |
| 7.8 | 3.9 | COc1cccc(CC2=C(c3ccc4c(c3)OCO4)C(=O)OC2(O)c2ccc(Cl)cc2)c1 (centres unmarked) [Example 47, 2(5H)-Furanone, 3-(1,3-benzodioxol-5-yl)-5-(4-chlorophenyl)-5-hydroxy-4-[(3-methoxyphenyl)methyl]-] |  |
